Measurements published in publication PMC10447463, “Data-mining unveils structure–property–activity correlation of viral infectivity enhancing self-assembling peptides” (Nature Communications, 2023).
Where “and” joins values, the source holds several entries; their conditions need not be identical. Identical values can stand only once. Like-named read-outs stand apart in the source and are kept apart here.

Columns and labels:
[1] = type: physicochemical; settings: for ThT Cat. / ThT-Fluorescence (categorical): ThT-active if fluorescence at least twice the control; for Rel. ThT: n-fold ThT fluorescence vs control (PBS, 10% DMSO), 4 µL 1 mg/mL fibrils + 20 µL 50 µM ThT, 15 min RT, ex 440 / em 488 nm, triplicate
In short: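 Fibrils (1 mg/mL solution) were mixed with 50 µM ThT in PBS for 15 min at RT, and fluorescence was read at λex 440/λem 488 nm against a PBS blank, as a triplicate mean ± SD. Zeta potential came from electrophoretic mobility (Smoluchowski) after 1 d aggregation at 1 mg/mL in PBS pH 7.4, diluted into 1 mM KCl.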

[2] = Turbidity, derived count rate of scattered light; type: physicochemical; settings: for Count Rate / kcps: derived count rate of scattered light at 633 nm, 173°, from zeta-potential measurement, 0.1 mg/mL in 1 mM KCl after 1 d at 1 mg/mL in PBS, turbidity / microscopic aggregation, mean of triplicate; for Zeta Count Rate: peptides with TEM 2cat 0
In short: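 One-day room-temperature aggregation at 1 mg/mL in PBS (pH 7.4) preceded measurement; samples then went into 1 mM KCl. Triplicates per sample, two independent experiments averaged.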

[3] = Log10 of derived count rate of scattered light (turbidity)
[4] = logarithm of count rate in kcps
[5] = turbidity, Log10 of derived count rate of scattered light, Figure 3A source data
[6] = turbidity, log10 of derived count rate of scattered light
[7] = ThT fluorescence category, 1 if Rel. ThT >2
[8] = log10 of derived count rate of scattered light (turbidity)

Substance | Tht category (> 2 to blank = +) ([1]; Fig S10 panel D) | ThT Cat. ([1]; Fig S10 panel E) | Tht category (> 2 to blank = +) ([1]; FigS12 panel A) | ThT Cat, ([1]; FigS12 panel B) | ThT Cat, ([1]; ThT category, 1 if Rel. ThT >2) | ThT Cat. ([1]; ThT category, 1 if Rel. ThT >2) | ThT Cat. / ThT-Fluorescence (categorical) [1] | Rel. ThT [1] | Log10 Count Rate [2, 3] | Count Rate / kcps [2] | Log10 Count Rate [2, 4] | Log10 Count Rate [2, 5] | Log10 Count Rate [2, 6] | ThT Cat. [1, 7] | Log10 Count Rate [2, 8] | Zeta Count Rate [2] [kcp]
CKAKAQANMWQ | 0 (ThT-inactive (N-Fold <2)) | 0 (ThT-inactive (N-Fold <2)) | 0 (ThT-inactive (N-Fold <2)) | 0 (ThT-inactive (N-Fold <2)) | 0 (ThT-inactive (N-Fold <2)) | 0 (ThT-inactive (N-Fold <2)) | 0 (ThT-inactive (N-Fold <2)) | 1.9 | 0.9526 | 9 kcps | 1 and 0.9528 | 0.9526 | 0.9526 |  |  | 
HHHHKIKIKIKIWWWW | 1 (ThT. Cat is 1, if Rel. ThT >2) | 1 (ThT. Cat is 1, if Rel. ThT >2) |  |  | 1 (ThT. Cat is 1, if Rel. ThT >2) |  | 1 (ThT. Cat is 1, if Rel. ThT >2) |  | 4.376 | 23757 kcps | 4.376 | 4.376 |  | 1 (ThT. Cat is 1, if Rel. ThT >2) | 4.376 | 23757
HHHHKAKAKAKAWWWW | 1 (ThT. Cat is 1, if Rel. ThT >2) |  | 1 (ThT. Cat is 1, if Rel. ThT >2) | 1 (ThT. Cat is 1, if Rel. ThT >2) | 1 (ThT. Cat is 1, if Rel. ThT >2) | 1 (ThT. Cat is 1, if Rel. ThT >2) | 1 (ThT. Cat is 1, if Rel. ThT >2) |  | 2.8188 | 659 kcps |  | 2.8188 |  |  | 2.8188 | 
KLKLQLL | 0 (ThT-inactive (N-Fold <2)) |  | 0 (ThT-inactive (N-Fold <2)) | 0 (ThT-inactive (N-Fold <2)) | 0 (ThT-inactive (N-Fold <2)) |  | 0 (ThT-inactive (N-Fold <2)) |  | 1.861 | 73 kcps |  | 1.861 |  | 0 (ThT-inactive (N-Fold <2)) | 1.861 | 
RGDSKIKIQIC | 1 (ThT. Cat is 1, if Rel. ThT >2) | 1 (ThT. Cat is 1, if Rel. ThT >2) |  |  | 1 (ThT. Cat is 1, if Rel. ThT >2) |  | 1 (ThT. Cat is 1, if Rel. ThT >2) |  | 3.431 | 2699 kcps |  | 3.431 |  | 1 (ThT. Cat is 1, if Rel. ThT >2) | 3.431 | 
KIKIQINMWWQ | 0 (ThT-inactive (N-Fold <2)) |  |  |  | 0 (ThT-inactive (N-Fold <2)) | 0 (ThT-inactive (N-Fold <2)) | 0 (ThT-inactive (N-Fold <2)) |  | 3.59 | 3893 kcps |  | 3.59 |  |  | 3.59 | 3893
KFKFQFN | 0 (ThT-inactive (N-Fold <2)) |  | 0 (ThT-inactive (N-Fold <2)) | 0 (ThT-inactive (N-Fold <2)) | 0 (ThT-inactive (N-Fold <2)) | 0 (ThT-inactive (N-Fold <2)) | 0 (ThT-inactive (N-Fold <2)) | 1.1 | 1.705 | 51 kcps | 1.7 | 1.705 | 1.705 |  |  | 
EIEIQINM | 0 (ThT-inactive (N-Fold <2)) | 0 (ThT-inactive (N-Fold <2)) | 0 (ThT-inactive (N-Fold <2)) | 0 (ThT-inactive (N-Fold <2)) | 0 (ThT-inactive (N-Fold <2)) | 0 (ThT-inactive (N-Fold <2)) | 0 (ThT-inactive (N-Fold <2)) |  | 2.127 | 134 kcps |  | 2.127 |  |  | 2.127 | 
MKIKIQINMWQ | 1 (ThT. Cat is 1, if Rel. ThT >2) |  |  |  | 1 (ThT. Cat is 1, if Rel. ThT >2) |  | 1 (ThT. Cat is 1, if Rel. ThT >2) |  | 3.169 | 1475 kcps |  | 3.169 |  | 1 (ThT. Cat is 1, if Rel. ThT >2) | 3.169 | 
QCKAKAQANMWQ | 0 (ThT-inactive (N-Fold <2)) | 0 (ThT-inactive (N-Fold <2)) | 0 (ThT-inactive (N-Fold <2)) | 0 (ThT-inactive (N-Fold <2)) | 0 (ThT-inactive (N-Fold <2)) | 0 (ThT-inactive (N-Fold <2)) | 0 (ThT-inactive (N-Fold <2)) | 1.5 | 2.631 | 428 kcps | 2.6 | 2.631 | 2.631 |  |  | 
KLKLKLQL | 0 (ThT-inactive (N-Fold <2)) |  | 0 (ThT-inactive (N-Fold <2)) | 0 (ThT-inactive (N-Fold <2)) | 0 (ThT-inactive (N-Fold <2)) |  | 0 (ThT-inactive (N-Fold <2)) |  | 1.632 | 43 kcps |  | 1.632 |  | 0 (ThT-inactive (N-Fold <2)) | 1.632 | 
KVKVQVVV | 0 (ThT-inactive (N-Fold <2)) |  | 0 (ThT-inactive (N-Fold <2)) | 0 (ThT-inactive (N-Fold <2)) | 0 (ThT-inactive (N-Fold <2)) |  | 0 (ThT-inactive (N-Fold <2)) |  | 2.213 | 163 kcps |  | 2.213 |  | 0 (ThT-inactive (N-Fold <2)) | 2.213 | 
CEIEIQINM | 1 (ThT. Cat is 1, if Rel. ThT >2) | 1 (ThT. Cat is 1, if Rel. ThT >2) | 1 (ThT. Cat is 1, if Rel. ThT >2) | 1 (ThT. Cat is 1, if Rel. ThT >2) | 1 (ThT. Cat is 1, if Rel. ThT >2) |  | 1 (ThT. Cat is 1, if Rel. ThT >2) |  | 1.767 | 58 kcps |  | 1.767 |  | 1 (ThT. Cat is 1, if Rel. ThT >2) | 1.767 | 
CKAKAQA | 0 (ThT-inactive (N-Fold <2)) | 0 (ThT-inactive (N-Fold <2)) | 0 (ThT-inactive (N-Fold <2)) | 0 (ThT-inactive (N-Fold <2)) | 0 (ThT-inactive (N-Fold <2)) |  | 0 (ThT-inactive (N-Fold <2)) |  | 2.56 | 363 kcps |  | 2.56 |  | 0 (ThT-inactive (N-Fold <2)) | 2.56 | 
RGDCKFKFQF | 1 (ThT. Cat is 1, if Rel. ThT >2) | 1 (ThT. Cat is 1, if Rel. ThT >2) |  |  | 1 (ThT. Cat is 1, if Rel. ThT >2) |  | 1 (ThT. Cat is 1, if Rel. ThT >2) |  | 3.1264 | 1338 kcps |  | 3.1264 |  | 1 (ThT. Cat is 1, if Rel. ThT >2) | 3.1264 | 
QCKAKAQANM | 0 (ThT-inactive (N-Fold <2)) | 0 (ThT-inactive (N-Fold <2)) | 0 (ThT-inactive (N-Fold <2)) | 0 (ThT-inactive (N-Fold <2)) | 0 (ThT-inactive (N-Fold <2)) | 0 (ThT-inactive (N-Fold <2)) | 0 (ThT-inactive (N-Fold <2)) | 1.4 | 2.31 | 204 kcps | 2.3 | 2.31 | 2.31 |  |  | 
CKIKQII | 1 (ThT. Cat is 1, if Rel. ThT >2) | 1 (ThT. Cat is 1, if Rel. ThT >2) | 1 (ThT. Cat is 1, if Rel. ThT >2) | 1 (ThT. Cat is 1, if Rel. ThT >2) | 1 (ThT. Cat is 1, if Rel. ThT >2) |  | 1 (ThT. Cat is 1, if Rel. ThT >2) |  | 1.873 | 74 ± 27 kcps and 75 kcps | 1.873 | 1.873 |  | 1 (ThT. Cat is 1, if Rel. ThT >2) | 1.873 | 
CKIKIQINM | 1 (ThT. Cat is 1, if Rel. ThT >2) | 1 (ThT. Cat is 1, if Rel. ThT >2) |  |  | 1 (ThT. Cat is 1, if Rel. ThT >2) |  | 1 (ThT. Cat is 1, if Rel. ThT >2) |  | 3.626 | 4228 kcps |  | 3.626 |  | 1 (ThT. Cat is 1, if Rel. ThT >2) | 3.626 | 
